According to PMC12261228 (ACS Pharmacology & Translational Science, 2025):
Like-named read-outs stand apart in the source and are kept apart here.

Experiments:
CCRF-CEM = assay: MTS cytotoxicity assay, 72 h; assay type: cell-based; settings: Homo sapiens, CCRF-CEM, 72 h
CEM-DNR = assay: MTS cytotoxicity assay, 72 h; assay type: cell-based; settings: Homo sapiens, read-out: IC50 CEM-DNR
K562 = assay: MTS cytotoxicity assay, 72 h; assay type: cell-based; settings: Homo sapiens, K562, 72 h, read-out: IC50 K562
K562-TAX = assay: MTS cytotoxicity assay, 72 h; assay type: cell-based; settings: read-out: IC50 K562-TAX
HCT116 = assay: MTS cytotoxicity assay, 72 h; assay type: cell-based; settings: Homo sapiens, HCT-116, 72 h, read-out: IC50 HCT116
HCT116p53–/– = assay: MTS cytotoxicity assay, 72 h; assay type: cell-based; settings: read-out: IC50 HCT116p53–/–
U2OS = assay: MTS cytotoxicity assay, 72 h; assay type: cell-based, human; settings: Homo sapiens, U2OS, 72 h
MRC-5 = assay: MTS cytotoxicity assay, 72 h; assay type: cell-based; settings: Homo sapiens, MRC5, 72 h, read-out: IC50 MRC-5
BJ = assay: MTS cytotoxicity assay, 72 h; assay type: cell-based; settings: Homo sapiens, read-out: IC50 BJ
A549 = assay: MTS cytotoxicity assay, 72 h; assay type: cell-based; settings: Homo sapiens, Fig. S22
Protocol: Cell suspensions were prepared and diluted according to the particular cell type and the expected target cell density (500 – 4,000 cells/well). The cells (30 μL/well) were seeded to 384-well clear Corning plates by MultiDrop Combi (Thermo Fisher Scientific, USA). After 24 h the cells were treated with tested compounds as well as with vehicle (DMSO) and high controls (2.67 μM of Actinomycin D and 100 μM Mitomycin C) using contact-free acoustic liquid handler ECHO 555 (Labcyte, USA). Compounds were analyzed at a concentration range from 0.012 μM to 50 μM. Treated cells were incubated at 37 °C in a 5% CO2 atmosphere of a humidified incubator for 72 h. At the end of the incubation period, aliquots of the MTS (Promega) solution prepared according to manufacturer's instructions were added to cells (https://worldwide.promega.com/resources/protocols/technical-bulletins/0/celltiter-96-aqueous-nonradioactive-cell-proliferation-assay-protocol/). After 1 – 4 h of the incubation period, the optical density (OD) at 490 nm was measured on a multimode plate reader EnVision (PerkinElmer, USA). The experiments were performed in technical duplicates and at least three biological replicates. […] The assay quality was monitored by determining the Z′-factor for each 384-well plate. The resistance index (RI), representing the reduction in compound activity on resistant cell lines, was calculated as RI = (IC50 of resistant cell lines, CEM-DNR, K562-TAX)/(IC50 of nonresistant counterparts, CCRF-CEM, K562). Similarly, the selectivity index (SI), indicating preferential cytotoxicity toward tumor cell lines, was calculated as SI = (mean IC50 of nontumor cell lines, BJ and MRC5)/(mean IC50 of cancer cell lines without resistant variants, CCRF-CEM, K562, HCT116, HCT116p53–/–, U2OS).

HUVEC = assay: MTS cytotoxicity assay, 72 h; assay type: cell-based; settings: Homo sapiens, 3-day incubation, mean ± SD
CCRF-CEM lymphoblasts = assay: FACS analysis of cell cycle, apoptosis, mitosis and polyploidy; settings: for Mitosis: phospho-Histone (Ser10); for Apoptosis: sub-G0/G1 DNA content, % of positive cells
[1] = MTS assay, 3-day incubation, mean ± SD of 3 experiments, read-out: IC50 CCRF-CEM
[2] = daunorubicin-resistant, MTS assay, 3-day incubation, mean ± SD
[3] = MTS assay, 3-day incubation, mean ± SD
[4] = paclitaxel-resistant, MTS assay, 3-day incubation, mean ± SD
[5] = MTS assay, 3-day incubation, mean ± SD, read-out: IC50 U2OS
[6] = normal fibroblasts, MTS assay, 3-day incubation, mean ± SD
[7] = read-out: IC50 CCRF-CEM, MTS assay, 3-day incubation, mean ± SD of 3 experiments
[8] = read-out: IC50 U2OS, MTS assay, 3-day incubation, mean ± SD

SMILES | IC50 (CCRF-CEM; [1]) [µM] | IC50 (CEM-DNR; [2]) [µM] | IC50 (K562; [3]) [µM] | IC50 (K562-TAX; [4]) [µM] | IC50 (HCT116; [3]) [µM] | IC50 (HCT116p53–/–; [3]) [µM] | IC50 (U2OS; [5]) [µM] | IC50 (MRC-5; [6]) [µM] | IC50 (BJ; [6]) [µM] | IC50 (A549) [µM] | IC50 (CCRF-CEM; [7]) [µM] | IC50 (CEM-DNR) [µM] | IC50 (K562) [µM] | IC50 (K562-TAX) [µM] | IC50 (HCT116) [µM] | IC50 (HCT116p53–/–) [µM] | IC50 (U2OS; [8]) [µM] | IC50 (MRC-5) [µM] | IC50 (BJ) [µM] | IC50 (HUVEC) [µM] | other results
CC1=CC(C)=[N+]2C1=C(CCCCBr)c1c(C)cc(C)n1[B-]2(F)F [B3, difluoro-1,3,5,7-tetramethyl-4-bora-3a,4a-diaza-s-indacene-8-yl)butyl bromide] | > 50 | > 50 | > 50 | > 50 | > 50 | > 50 | > 50 | > 50 | > 50 | > 50 |  |  |  |  |  |  |  |  |  |  | 
COc1cc(C2=C3C(C)=CC(C)=[N+]3[B-](F)(F)n3c(C)cc(C)c32)ccc1OCc1cn([C@H]2CCc3cc(OC)c(OC)c(OC)c3-c3ccc(OC)c(=O)cc32)n[n+]1C [CB9] |  |  |  |  |  |  |  |  |  |  | 4.81 ± 0.641 | 6.49 ± 0.639 | 7.69 ± 0.45 | 5.78 ± 0.561 | 8.27 ± 1.43 | 8.56 ± 0.365 | > 50 | > 50 | > 50 | 40.1 ± 2.93 | RI (resistance index) (panel of cell lines): 0.98; SI (selectivity index) (panel of cell lines): >3.15; G0/G1 (CCRF-CEM lymphoblasts; 1×IC50, 24 h): 12.83%; G2/M (CCRF-CEM lymphoblasts; 1×IC50, 24 h): 60.07%; Polyploid cells (CCRF-CEM lymphoblasts; 1×IC50, 24 h): 29.32%; S (CCRF-CEM lymphoblasts; 1×IC50, 24 h): 27.11%; Mitosis (CCRF-CEM lymphoblasts; 1×IC50, 24 h): 32.84%; Apoptosis (CCRF-CEM lymphoblasts; 1×IC50, 24 h): 8.93%; G0/G1 (CCRF-CEM lymphoblasts; 5×IC50, 24 h): 19.56%; G2/M (CCRF-CEM lymphoblasts; 5×IC50, 24 h): 48.91%; Polyploid cells (CCRF-CEM lymphoblasts; 5×IC50, 24 h): 26.30%; S (CCRF-CEM lymphoblasts; 5×IC50, 24 h): 31.53%; Mitosis (CCRF-CEM lymphoblasts; 5×IC50, 24 h): 31.00%; Apoptosis (CCRF-CEM lymphoblasts; 5×IC50, 24 h): 14.27%
C#CCOc1ccc(C2=C3C(C)=CC(C)=[N+]3[B-](F)(F)n3c(C)cc(C)c32)cc1OC [B8] | > 50 | > 50 | > 50 | > 50 | > 50 | > 50 | > 50 | > 50 | > 50 | > 50 |  |  |  |  |  |  |  |  |  |  | 
CC1=CC(C)=[N+]2C1=C(CCCCN(C)C)c1c(C)cc(C)n1[B-]2(F)F [B6] | > 50 | > 50 | > 50 | > 50 | > 50 | > 50 | > 50 | > 50 | > 50 | > 50 |  |  |  |  |  |  |  |  |  |  | 
COc1cc2c(c(OC)c1OC)-c1ccc(OC)c(=O)cc1[C@@H](NC(=O)CCCCCCCCCCC1=C3C(C)=CC(C)=[N+]3[B-](F)(F)n3c(C)cc(C)c31)CC2 [CB2] |  |  |  |  |  |  |  |  |  |  | 0.33 ± 0.005 | 1.45 ± 0.06 | 0.19 ± 0.04 | 0.58 ± 0.035 | > 50 | > 50 | > 50 | > 50 | > 50 | 0.36 ± 0.035 | RI (resistance index) (panel of cell lines): 3.90; SI (selectivity index) (panel of cell lines): >1.66; cytotoxic activity across the cell line panel (in words) (panel of cell lines): selectively killed/affected suspension cell lines; G0/G1 (CCRF-CEM lymphoblasts; 1×IC50, 24 h): 6.59%; G2/M (CCRF-CEM lymphoblasts; 1×IC50, 24 h): 89.19%; Polyploid cells (CCRF-CEM lymphoblasts; 1×IC50, 24 h): 23.67%; S (CCRF-CEM lymphoblasts; 1×IC50, 24 h): 4.22%; Mitosis (CCRF-CEM lymphoblasts; 1×IC50, 24 h): 45.60%; Apoptosis (CCRF-CEM lymphoblasts; 1×IC50, 24 h): 8.51%; G0/G1 (CCRF-CEM lymphoblasts; 5×IC50, 24 h): 5.2%; Polyploid cells (CCRF-CEM lymphoblasts; 5×IC50, 24 h): 26.18%; S (CCRF-CEM lymphoblasts; 5×IC50, 24 h): 1.29%; Mitosis (CCRF-CEM lymphoblasts; 5×IC50, 24 h): 79.51%; Apoptosis (CCRF-CEM lymphoblasts; 5×IC50, 24 h): 13.84%
